Assay results published in PMC4777897 (Progress in neuro-psychopharmacology & biological psychiatry, 2015).

What was measured:
[1] = test system: participants who met criteria for cocaine use disorder; experiment: Adverse events, inpatient study of oral nepicastat with IV cocaine; assay type: in vivo, human
[2] = test system: participants who met criteria for cocaine use disorder; experiment: Cocaine-induced subjective effects; assay type: in vivo, human; settings: VAS
[3] = test system: participants who met criteria for cocaine use disorder; experiment: Reinforcing effects: choice session, cocaine vs money self-administration; assay type: in vivo, human; settings: Day 13; nepicastat 0 or 160 mg; cocaine 0 or 20 mg IV
[4] = test system: participants who met criteria for cocaine use disorder; experiment: Cocaine-induced cardiovascular effects; assay type: in vivo, human; settings: nepicastat 0, 80, 160 mg; cocaine 0, 10, 20, 40 mg IV; n = 13
[5] = Plasma pharmacokinetics of cocaine after 10 mg IV infusion; settings: cocaine 10 mg IV
rats = settings: ref Schroeder et al., 2013; cited from earlier work
[6] = test system: DA and NE release in mPFC and NAc; settings: rats, microdialysis; ref Devoto et al., 2014; cited from earlier work
[7] = Treatment–Cocaine period, nepicastat group n = 14

Cl.NCc1c[nH]c(=S)n1[C@H]1CCc2c(F)cc(F)cc2C1.O [nepicastat, (S)-5-aminomethyl-1-(5,7-difluoro-1,2,3,4-tetrahydronaphth-2-yl)-1,3-dihydroimidazole-2-thione hydrochloride monohydrate]
Incidence of Abnormal dreams [1, 7]: 0 (0) number (%) of subjects | Incidence of Arthralgia [1, 7]: 2 (14) number (%) of subjects | Incidence of Back pain [1, 7]: 0 (0) number (%) of subjects | Incidence of Depressed mood [1, 7]: 1 (7) number (%) of subjects | Incidence of Dizziness [1, 7]: 0 (0) number (%) of subjects | Incidence of Dyspepsia [1, 7]: 2 (14) number (%) of subjects | Incidence of Gastroesophageal reflux disease [1, 7]: 3 (21) number (%) of subjects | Incidence of Headache [1, 7]: 2 (14) number (%) of subjects | Incidence of Insomnia [1, 7]: 4 (29) number (%) of subjects | Incidence of Myalgia [1, 7]: 0 (0) number (%) of subjects | Incidence of Nausea [1, 7]: 1 (7) number (%) of subjects | Incidence of Neck pain [1, 7]: 2 (14) number (%) of subjects | Incidence of Vessel puncture site hematoma [1, 7]: 0 (0) number (%) of subjects | Incidence of Vessel puncture site pain [1, 7]: 4 (29) number (%) of subjects | Safety and tolerability (number, type, severity and duration of AEs vs placebo) ([1]; oral nepicastat 80 and 160 mg during IV cocaine exposure): safe and well-tolerated | Effect on negative subjective effects ([2]; nepicastat 80 and 160 mg oral with IV cocaine): did not increase | Reduction of the positive subjective effects produced by cocaine ([2]; nepicastat 80 and 160 mg oral, n = 13): ~ 25% | Main effect on choices for cocaine vs money (ANOVA) [3]: did not reveal a main effect | Main effect on peak heart rate (ANOVA) [4]: one was detected | Main effect on peak systolic or diastolic blood pressure (ANOVA) [4]: did not reveal a main effect | Effect on PK parameters of benzoylecgonine or ecgonine methyl ester ([5]; Day 3 vs Day 11, data not shown): None of the PK parameters for benzoylecgonine or ecgonine methyl ester showed statistically significant changes | Effect on kinetics, metabolism or clearance of cocaine or its metabolites ([5]; oral nepicastat 160 mg): did not change | Breakpoint for cocaine (rats): significantly lowered | DA release in the mPFC and NAc [6]: increasing DA release in the mPFC but not in the NAc
